Key:
[1] = Metabolic stability in human liver homogenate; assay type: in vitro ADME; settings: 2 hours at 37° C., HPLC/fluorimetry, read-out: Metabolic Stability (substance remaining)
Experimental: The metabolic stability is determined by a homogenate of hepatic tissue in physiological common salt solution being incubated with the test substance for 0 or 2 hours at 37° C. Then, the incubation batch is extracted and the content of test substance in the extract is determined by HPLC/fluorimetry. The substance remaining after 2 hours in comparison with 0 hours is expressed in percent stability.

benzodiazepine receptors = test: Inhibition of the H^3-BD binding in vivo (displacement of radioactively-labeled flunitrazepam); settings: mice, i.p.; 3H-flunitrazepam i.v. after 15 minutes, forebrains removed after another 20 minutes; dose reducing specific binding to 50% of control

| Compound | remaining at 2 h [1] [%] | Inhibition of the H^3 -BD binding In vivo ED50 (benzodiazepine receptors) |
| --- | --- | --- |
| COCc1c(C(=O)c2ccccc2)ncc2[nH]c3ccc(OCc4ccccc4)cc3c12 [A, 6-Benzyloxy-4-methoxymethyl-3-benzoyl-beta-carboline] | 72 | 5.0 mg/kg |
| COCc1c(C(=O)Oc2ccccc2)ncc2[nH]c3ccc(OCc4ccccc4)cc3c12 [B, 6benzyloxy-4-methoxymethyl-beta-carboline-3-carboxylic acid phenyl ester, reference compound] | – | greater than 90 mg/kg |
